According to patent publication US20100298141A1, “SUBSTITUTED PYRIDINE N-OXIDE HERBICIDES” (E. I. DU PONT DE NEMOURS AND COMPANY, priority 2007, published 2010):

Experiments:
[1] = tested on: pitted morningglory; experiment: Test F preemergence test; type: in vivo, Ipomoea lacunosa; details: scale 0 to 100
Method in brief: (§1)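 Greenhouse screen: test chemical in surfactant-containing non-phytotoxic solvent applied preemergence to sown seeds or postemergence to sugarcane plants; after 14 to 21 days each species scored visually versus controls.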

[2] = tested on: bermudagrass; experiment: Test F preemergence test; type: in vivo, Cynodon dactylon; details: scale 0 to 100
Method in brief: as §1

[3] = tested on: annual bluegrass; experiment: Test F preemergence test; type: in vivo, Poa annua; details: scale 0 to 100
Method in brief: as §1

[4] = tested on: johnsongrass; experiment: Test F preemergence test; type: in vivo, Sorghum halepense; details: scale 0 to 100
Method in brief: as §1

[5] = tested on: Surinam grass; experiment: Test F preemergence test; type: in vivo, Brachiaria decumbens; details: scale 0 to 100
Method in brief: as §1

[6] = tested on: large crabgrass; experiment: Test F preemergence test; type: in vivo, Digitaria sanguinalis; details: scale 0 to 100
Method in brief: as §1

[7] = tested on: broadleaf signalgrass; experiment: Test F preemergence test; type: in vivo, Brachiaria platyphylla; details: scale 0 to 100
Method in brief: as §1

[8] = tested on: Italian ryegrass; experiment: Test F preemergence test; type: in vivo, Lolium multiflorum; details: scale 0 to 100
Method in brief: as §1

[9] = tested on: goosegrass; experiment: Test F preemergence test; type: in vivo, Eleusine indica; details: scale 0 to 100
Method in brief: as §1

[10] = tested on: morningglory; experiment: Test C pre-/postemergence test; type: in vivo, Ipomoea coccinea; details: Preemergence
Method in brief: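 Test chemicals were formulated with surfactant in a non-phytotoxic solvent and sprayed both on freshly planted seeds (preemergence) and on 1- to 4-leaf plants of 2–18 cm (postemergence). Flooded-paddy pots received compound directly into 3 cm of standing water, maintained for the test.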

[11] = tested on: purple nutsedge; experiment: Test F preemergence test; type: in vivo, Cyperus rotundus; details: scale 0 to 100
Method in brief: as §1

[12] = tested on: naked crabgrass; experiment: Test F preemergence test; type: in vivo, Digitaria nuda; details: scale 0 to 100
Method in brief: as §1

[13] = tested on: kochia; experiment: Test F preemergence test; type: in vivo, Kochia scoparia; details: scale 0 to 100
Method in brief: as §1

[14] = tested on: common ragweed; experiment: Test F preemergence test; type: in vivo, Ambrosia elation; details: scale 0 to 100
Method in brief: as §1

[15] = tested on: rice; experiment: Test C flooded paddy test; type: in vivo, Oryza sativa; details: Flood
Method in brief: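 Compound was added to standing water 3 cm above soil, flood maintained, and plants held in a greenhouse before visual scoring against controls at 13 to 15 days.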

[16] = tested on: Virginia dayflower; experiment: Test F preemergence test; type: in vivo, Commelina virginica; details: scale 0 to 100
Method in brief: as §1

[17] = 31 g ai/ha, scale 0 to 100 (0 no effect, 100 complete control)

Cc1cc[n+]([O-])c([S+]([O-])Cc2c(C(F)(F)F)nn(C)c2Cl)c1 (racemic) [Compound 20]
Plant response rating, Morningglory ([1]; 8 g ai/ha, preemergence): 0 | Morningglory plant response rating ([1]; 62 g ai/ha, Preemergence): 40 | Plant response rating, Morningglory ([1]; Preemergence, 16 g ai/ha): 0 | Plant response rating, Morningglory ([1]; Preemergence, 31 g ai/ha): 15 | Plant response rating, Bermudagrass ([2]; 8 g ai/ha, preemergence): 15 | Bermudagrass plant response rating ([2]; 62 g ai/ha, Preemergence): 50 | Plant response rating, Bermudagrass ([2]; Preemergence, 16 g ai/ha): 20 | Plant response rating, Bermudagrass ([2]; Preemergence, 31 g ai/ha): 50 | Plant response rating, Bluegrass ([3]; 8 g ai/ha, preemergence): 0 | Bluegrass plant response rating ([3]; 62 g ai/ha, Preemergence): 40 | Plant response rating, Bluegrass ([3]; Preemergence, 16 g ai/ha): 0 | Plant response rating, Bluegrass ([3]; Preemergence, 31 g ai/ha): 0 | Plant response rating, Johnsongrass ([4]; 8 g ai/ha, preemergence): 0 | Johnsongrass plant response rating ([4]; 62 g ai/ha, Preemergence): 90 | Plant response rating, Johnsongrass ([4]; Preemergence, 16 g ai/ha): 50 | Plant response rating, Johnsongrass ([4]; Preemergence, 31 g ai/ha): 60 | Plant response rating, Surinam Grass ([5]; 8 g ai/ha, preemergence): 0 | Plant response rating, Surinam Grass ([5]; 16 g ai/ha, preemergence): 0 | Surinam Grass plant response rating ([5]; 62 g ai/ha, Preemergence): 65 | Plant response rating, Surinam Grass ([5]; Preemergence, 31 g ai/ha): 60 | Plant response rating, Crabgrass, Large ([6]; 8 g ai/ha, preemergence): 0 | Crabgrass, Large plant response rating ([6]; 62 g ai/ha, Preemergence): 80 | Plant response rating, Crabgrass, Large ([6]; Preemergence, 16 g ai/ha): 10 | Plant response rating, Crabgrass, Large ([6]; Preemergence, 31 g ai/ha): 70 | Plant response rating, Signalgrass ([7]; 8 g ai/ha, preemergence): 50 | Plant response rating, Signalgrass ([7]; 16 g ai/ha, preemergence): 35 | Signalgrass plant response rating ([7]; 62 g ai/ha, Preemergence): 75 | Plant response rating, Signalgrass ([7]; Preemergence, 31 g ai/ha): 65 | Plant response rating, Ryegrass, Italian ([8]; 8 g ai/ha, preemergence): 0 | Ryegrass, Italian plant response rating ([8]; 62 g ai/ha, Preemergence): 65 | Plant response rating, Ryegrass, Italian ([8]; Preemergence, 16 g ai/ha): 10 | Plant response rating, Ryegrass, Italian ([8]; Preemergence, 31 g ai/ha): 35 | Plant response rating, Goosegrass ([9]; 8 g ai/ha, preemergence): 0 | Goosegrass plant response rating ([9]; 62 g ai/ha, Preemergence): 75 | Plant response rating, Goosegrass ([9]; Preemergence, 16 g ai/ha): 15 | Plant response rating, Goosegrass ([9]; Preemergence, 31 g ai/ha): 60 | Morningglory plant response rating ([10]; 62 g ai/ha, scale 0 to 100): 85 | Plant response rating, Morningglory [10, 17]: 0 | Plant response rating, Purple Nutsedge ([11]; 8 g ai/ha, preemergence): 0 | Purple Nutsedge plant response rating ([11]; 62 g ai/ha, Preemergence): 25 | Plant response rating, Purple Nutsedge ([11]; Preemergence, 16 g ai/ha): 0 | Plant response rating, Purple Nutsedge ([11]; Preemergence, 31 g ai/ha): 0 | Plant response rating, Crabgrass, Naked ([12]; 8 g ai/ha, preemergence): 75 | Crabgrass, Naked plant response rating ([12]; 62 g ai/ha, Preemergence): 95 | Plant response rating, Crabgrass, Naked ([12]; Preemergence, 16 g ai/ha): 75 | Plant response rating, Crabgrass, Naked ([12]; Preemergence, 31 g ai/ha): 80 | Plant response rating, Kochia ([13]; 8 g ai/ha, preemergence): 0 | Kochia plant response rating ([13]; 62 g ai/ha, Preemergence): 50 | Plant response rating, Kochia ([13]; Preemergence, 16 g ai/ha): 0 | Plant response rating, Kochia ([13]; Preemergence, 31 g ai/ha): 0 | Plant response rating, Ragweed ([14]; 8 g ai/ha, preemergence): 0 | Ragweed plant response rating ([14]; 62 g ai/ha, Preemergence): 25 | Plant response rating, Ragweed ([14]; Preemergence, 16 g ai/ha): 0 | Plant response rating, Ragweed ([14]; Preemergence, 31 g ai/ha): 0 | Plant response rating, Rice [15, 17]: 0 | Plant response rating, Rice ([15]; 62 g ai/ha, scale 0 to 100, 0 no effect, 100 complete control, 13 to 15 days): 0 | Plant response rating, Rice ([15]; 125 g ai/ha, scale 0 to 100, 0 no effect, 100 complete control, 13 to 15 days): 0 | Plant response rating, Rice ([15]; 250 g ai/ha, scale 0 to 100 (0 no effect, 100 complete control)): 30 | Plant response rating, Dayflower ([16]; 8 g ai/ha, preemergence): 0 | Dayflower plant response rating ([16]; 62 g ai/ha, Preemergence): 60 | Plant response rating, Dayflower ([16]; Preemergence, 16 g ai/ha): 0 | Plant response rating, Dayflower ([16]; Preemergence, 31 g ai/ha): 0
